Results on 1 compound are retold here after patent publication US5578592A, “Cephalosporin derivatives” (Pfizer Inc., priority 1992, dated 1996).

What all share (type): cell-based
The test system of one assay is E. Coli 10418. Briefly: In vitro antibacterial activity (MIC), E. Coli 10418. The conditions noted are these: Escherichia coli.
For a further assay, the system named is H. Influenzae Q1. Kind of assay: In vitro antibacterial activity (MIC), H. Influenzae Q1. Conditions: Haemophilus influenzae.
Another assay concerns H. influenzae W/M 493. Briefly: In vitro antibacterial activity (MIC), H. influenzae W/M 493. The conditions noted are these: Haemophilus influenzae.
For the next assay, the system named is S. aureus Oxford. Briefly: In vitro antibacterial activity (MIC), S. aureus Oxford. Conditions: Staphylococcus aureus.
In a further assay the test system is S. aureus Russell. Briefly: In vitro antibacterial activity (MIC), S. aureus Russell. The conditions noted are these: Staphylococcus aureus.
A further assay relates to S. epidermis PHLN20. Kind of assay: In vitro antibacterial activity (MIC), S. epidermis PHLN20.

In the case of `CO/N=C(\C(=O)N[C@@H]1C(=O)N2C(C(=O)O)=C3[C@H]4Oc5ccccc5[C@H]4[C@@H]3S[C@H]12)c1csc(N)n1` [Example 14, Sodium (4S,8R,9S,11R,12R)-12-[2-(2-aminothiazol-4-yl)-2-(Z)-methoxy-iminoacetamido]-13-oxo-5-oxa-10-thia-1-aza-6,7-benzotetracyclo[9.2.0.0^3,9.0^4,8]tridec-2-ene-carboxylate], the MIC with E. Coli 10418 was 0.12 µg/mL; in the assay with H. Influenzae Q1, less than 0.06 µg/mL; in the assay on H. influenzae W/M 493, 0.5 µg/mL; in the assay with S. aureus Oxford, 0.5 µg/mL; in the assay with S. aureus Russell, 1 µg/mL; against S. epidermis PHLN20, 0.25 µg/mL.
